Common to all, as to assay: drug sensitivity score (DSS), CellTox Green (DSS (AUC-based score)); higher = stronger drug effect (viability inhibition or cytotoxicity); extreme values may be limits of the assay
Holding throughout (conditions): incubation time: 72 h

One experiment concerns MDA-MB-453. In outline: (§1)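 Using 20 µl of cell suspension per well, breast cancer cell lines were seeded into 384-well plates pre-loaded with compound at 5 concentrations in 10-fold steps across a compound-specific 10,000-fold range. Incubation lasted 72 h, after which CellTox Green fluorescence at 485/520 nm and then CellTiter-Glo luminescence, following 10 min at room temperature, were recorded. Each plate was normalised to 0.1 % DMSO and a positive kill control before the drug sensitivity score was derived from the area under the fitted dose-response curve.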

For another experiment, the system named is CAL-120. In outline: as §1
The test system of another experiment is Hs578T. In outline:
as §1

For another experiment, the system named is HCC1143. An outline of the steps:
as §1

Another experiment deals with HCC1937. An outline of the steps:
as §1

For another experiment, the system named is CAL-85-1. An outline of the steps: as §1
The subject of another experiment is MDA-MB-436. An outline of the steps: as §1
For the next experiment, the system named is BT-549. In outline:
as §1

The next experiment concerns CAL-51. In outline: as §1
The test system of a further experiment is MFM-223. An outline of the steps: as §1
A further experiment relates to HDQ-P1. In outline: as §1
In a further experiment the test system is MDA-MB-231. In outline:
as §1

The next experiment relates to MDA-MB-468. In outline: as §1
The test system of the next experiment is MCF-10A. In outline:
as §1

A further experiment relates to DU-4475. In outline: as §1

Molecules are shown by their SMILES.

On to `CS(=O)(=O)c1ccc(C2=C(c3ccccc3)C(=O)OC2)cc1` [Rofecoxib], for which the drug sensitivity score with MDA-MB-453 came out at 0; in the experiment with CAL-120, 0; in the experiment on Hs578T, 0; in the experiment with HCC1143 it was 0; with HCC1937, 1.95; with CAL-85-1, 0. Besides, the drug sensitivity score in the experiment on MDA-MB-436, in the experiment with BT-549, in the experiment on CAL-51, in the experiment with MFM-223, in the experiment with HDQ-P1 and with MDA-MB-231 was 0 in each case. Further, the drug sensitivity score was 3.77 in the experiment on MDA-MB-468, 0 with MCF-10A and 0 with DU-4475.
`O=C(CCCCCCC(=O)Nc1ccc([C@H]2O[C@@H](CSc3nc(-c4ccccc4)c(-c4ccccc4)o3)C[C@@H](c3ccc(CO)cc3)O2)cc1)NO` [Tubacin]: the drug sensitivity score in the experiment with MDA-MB-453 was 1.38; with CAL-120, 0; with Hs578T it was 0.503; in the experiment on HCC1143, 2.07; in the experiment with HCC1937, 10.6; in the experiment with CAL-85-1, 5.67. Moreover, the drug sensitivity score turned out to be 0 with MDA-MB-436; 0 with BT-549; 3.54 in the experiment on CAL-51; 0 in the experiment on MFM-223; 0 in the experiment with HDQ-P1; 7.97 in the experiment on MDA-MB-231. Moreover, the drug sensitivity score in the experiment on MDA-MB-468, in the experiment on MCF-10A and with DU-4475 was 0 in each case.
For the compound `COc1cc2ncnc(Nc3ccc(F)c(Cl)c3)c2cc1NC(=O)/C=C/CN1CCCCC1` [Dacomitinib], the drug sensitivity score in the experiment with MDA-MB-453 came out at 0; in the experiment with CAL-120, 0; in the experiment on Hs578T, 0; in the experiment with HCC1143, 0; in the experiment with HCC1937 it was 0; in the experiment with CAL-85-1 it was 4.64. In addition, the drug sensitivity score in the experiment on MDA-MB-436 turned out to be 2.58; in the experiment on BT-549 it was 0; in the experiment on CAL-51, 0; in the experiment on MFM-223, 0; in the experiment on HDQ-P1, 0; in the experiment with MDA-MB-231 it was 0. Besides, the drug sensitivity score in the experiment with MDA-MB-468, in the experiment on MCF-10A and in the experiment with DU-4475 was 0 in each case.
Take `O=C(O)c1ccc(-c2c[nH]c3ncc(-c4ccccc4)cc23)cc1C1CCCC1`: the drug sensitivity score in the experiment with MDA-MB-453, in the experiment with CAL-120, with Hs578T, in the experiment on HCC1143, with CAL-85-1 and in the experiment with MDA-MB-436 was 0 in each case. Further, the drug sensitivity score with BT-549 was 0; with CAL-51, 0; with MFM-223, 1.51; with HDQ-P1, 0; with MDA-MB-231, 0; in the experiment with MDA-MB-468, 0. The drug sensitivity score in the experiment on MCF-10A and with DU-4475 was 0 throughout.
Take `CCCCCCCCCCCCCCCCCCOP(=O)([O-])OC1CC[N+](C)(C)CC1` [Perifosine]: the drug sensitivity score with MDA-MB-453, in the experiment on CAL-120, in the experiment with Hs578T, in the experiment on HCC1143, in the experiment with HCC1937 and with CAL-85-1 was 0 each time. For the same compound, the drug sensitivity score with MDA-MB-436, in the experiment with BT-549, in the experiment on CAL-51, in the experiment with MFM-223, in the experiment with HDQ-P1 and in the experiment on MDA-MB-231 was 0 in each case. The drug sensitivity score with MDA-MB-468, in the experiment with MCF-10A and in the experiment with DU-4475 was 0 throughout.
As for `N#CCNC(=O)c1ccc(-c2ccnc(Nc3ccc(N4CCOCC4)cc3)n2)cc1` [Momelotinib], the drug sensitivity score in the experiment on MDA-MB-453 was found to be 0; with CAL-120, 0; with Hs578T, 0; in the experiment on HCC1143, 0; in the experiment with HCC1937, 0; with CAL-85-1, 4.03. Besides, the drug sensitivity score in the experiment on MDA-MB-436 turned out to be 0; in the experiment on BT-549, 2.78; in the experiment on CAL-51, 0; in the experiment on MFM-223, 0; in the experiment with HDQ-P1, 0; in the experiment with MDA-MB-231 it was 7.53. In addition, the drug sensitivity score in the experiment on MDA-MB-468 is 2.22; with MCF-10A, 0; in the experiment with DU-4475, 0.
With `NC(=O)Nc1cc(-c2cccc(F)c2)sc1C(=O)N[C@H]1CCCNC1` [AZD7762], the drug sensitivity score with MDA-MB-453 is 0; in the experiment with CAL-120, 0; in the experiment on Hs578T, 17.4; in the experiment with HCC1143, 0; in the experiment with HCC1937, 0; with CAL-85-1 it was 12.9. Further, the drug sensitivity score is 0 in the experiment on MDA-MB-436; 0 with BT-549; 3.37 in the experiment with CAL-51; 0 in the experiment with MFM-223; 0 in the experiment on HDQ-P1; 0.946 in the experiment with MDA-MB-231. Besides, the values for the drug sensitivity score in the experiment with MDA-MB-468, in the experiment on MCF-10A and with DU-4475 were 6.89, 0 and 0, respectively.

The values are drawn from the supplement of paper PMC4862054.
